Laboratory results as given in patent US9833497B2, “Human originated EGF domain proteins and use of the same” (CHENGDU SOURCEBIO LIMITED-LIABILITY COMPANY, priority 2013, dated 2017).

Legend:
Type in all cases: cell-based
[1] = tested on: Enterobacter cloacae; experiment: MIC against Gram-negative bacteria: Enterobacter cloacae
How it was run: (§1)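 LB broth cultures at McFarland 0.5, spun down, resuspended, diluted to 5×10^5 CFU/mL final. Two-fold serial dilutions of purified human EGF domain proteins, triplicate. 37° C, 175 rpm shaking. Endpoint: no visible growth.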

[2] = tested on: E. coli BL21; experiment: MIC against Gram-negative bacteria: E. coli BL21
How it was run: as §1

[3] = tested on: Citrobacter diversus; experiment: MIC against Gram-negative bacteria: Citrobacter diversus
How it was run: as §1

[4] = tested on: E. coli DH5α; experiment: Antibacterial activity: MIC and growth curve against E. coli DH5α in 96-well plate; conditions: minimal inhibitory concentration against E. coli DH5α; 96-well plate, 5×10^5 CFU/mL, 37° C., judged after 8 h
How it was run: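 Log-phase DH5α (OD600 about 0.5, 37° C, 185 rpm in LB) was pelleted, resuspended in fresh LB and seeded at 5×10^5 CFU/mL with recombinant protein at 50, 25 and 12.5 μg/mL (two-fold series), in triplicate. Plates were shaken at 175 rpm, 37° C, and OD600 was read every 30 min. MIC was the lowest concentration with no growth.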

[5] = tested on: Pseudomonas aeruginosa; experiment: MIC against Gram-negative bacteria: Pseudomonas aeruginosa
How it was run: as §1

[6] = tested on: Serratia marcescens; experiment: MIC against Gram-negative bacteria: Serratia marcescens
How it was run: as §1

[7] = tested on: Proteus mirabilis; experiment: MIC against Gram-negative bacteria: Proteus mirabilis
How it was run: as §1

[8] = tested on: Moraxella catarrhalis; experiment: MIC against Gram-negative bacteria: Moraxella catarrhalis
How it was run: as §1

[9] = tested on: Proteus vulgaris; experiment: MIC against Gram-negative bacteria: Proteus vulgaris
How it was run: as §1

[10] = tested on: Klebsiella pneumonia; experiment: MIC against Gram-negative bacteria: Klebsiella pneumonia
How it was run: as §1

[11] = tested on: Aeromonas hydrophila; experiment: MIC against Gram-negative bacteria: Aeromonas hydrophila
How it was run: as §1

[12] = Enterobacter cloacae, 5×10^5 CFU/mL, 10 h cultivation at 37° C.
[13] = E. coli BL21, 5×10^5 CFU/mL, 10 h cultivation at 37° C.
[14] = Citrobacter diversus, 5×10^5 CFU/mL, 10 h cultivation at 37° C.
[15] = Pseudomonas aeruginosa, 5×10^5 CFU/mL, 10 h cultivation at 37° C.
[16] = Serratia marcescens, 5×10^5 CFU/mL, 10 h cultivation at 37° C.
[17] = Proteus mirabilis, 5×10^5 CFU/mL, 10 h cultivation at 37° C.
[18] = Moraxella catarrhalis, 5×10^5 CFU/mL, 10 h cultivation at 37° C.
[19] = Proteus vulgaris, 5×10^5 CFU/mL, 10 h cultivation at 37° C.
[20] = Klebsiella pneumonia, 5×10^5 CFU/mL, 10 h cultivation at 37° C.
[21] = Aeromonas hydrophila, 5×10^5 CFU/mL, 10 h cultivation at 37° C.
[22] = 96-well plate, 5×10^5 CFU/mL, 37° C., 10 h
[23] = 10 h cultivation at 37° C., 5×10^5 CFU/mL, two-fold serial dilution

## PRT1385 (GVRSCPGDCNQRGRCEDGRCVCWPGYTGTDC; listed as Homo sapiens)
[1]; [12]
  MIC against E. cloacae: 12.5 µg/mL
[2]; [13]
  MIC against E. coli BL21: 50 µg/mL
[3]; [14]
  MIC against C. diversus: 12.5 µg/mL
[4]
  MIC: 12.5 µg/mL
[5]; [15]
  MIC against P. aeruginosa: 12.5 µg/mL
[6]; [16]
  MIC against S. marcescens: 50 µg/mL
[7]; [17]
  MIC against P. mirabilis: 12.5 µg/mL
[8]; [18]
  MIC against M. catarrhalis: 50 µg/mL
[9]; [19]
  MIC against P. vulgaris: 25 µg/mL
[10]; [20]
  MIC against K. pneumonia: 50 µg/mL
[11]; [21]
  MIC against A. hydrophila: 50 µg/mL

## PRT31 (CDCYPVGSTSRSCAPHSGQCPCRPGALGRQCNSCDSPFAEVTASGC; listed as Homo sapiens)
[1]; Enterobacter cloacae, 96-well plate, 5×10^5 CFU/mL, 37° C., 10 h
  MIC (μg/mL) E. cloacae: 12.5 µg/mL
[2]; E. coli BL21, 96-well plate, 5×10^5 CFU/mL, 37° C., 10 h
  MIC (μg/mL) E. coli BL21: 12.5 µg/mL
[3]; Citrobacter diversus, 96-well plate, 5×10^5 CFU/mL, 37° C., 10 h
  MIC (μg/mL) C. diversus: 12.5 µg/mL
[4]
  MIC: 25 µg/mL
[5]; Pseudomonas aeruginosa, 96-well plate, 5×10^5 CFU/mL, 37° C., 10 h
  MIC (μg/mL) P. aeruginosa: 12.5 µg/mL
[6]; Serratia marcescens, 96-well plate, 5×10^5 CFU/mL, 37° C., 10 h
  MIC (μg/mL) S. marcescens: 25 µg/mL
[7]; Proteus mirabilis, 96-well plate, 5×10^5 CFU/mL, 37° C., 10 h
  MIC (μg/mL) P. mirabilis: 25 µg/mL
[8]; Moraxella catarrhalis, 96-well plate, 5×10^5 CFU/mL, 37° C., 10 h
  MIC (μg/mL) M. catarrhalis: 12.5 µg/mL
[9]; Proteus vulgaris, 96-well plate, 5×10^5 CFU/mL, 37° C., 10 h
  MIC (μg/mL) P. vulgaris: 50 µg/mL
[10]; Klebsiella pneumonia, 96-well plate, 5×10^5 CFU/mL, 37° C., 10 h
  MIC (μg/mL) K. pneumonia: 25 µg/mL
[11]; Aeromonas hydrophila, 96-well plate, 5×10^5 CFU/mL, 37° C., 10 h
  MIC (μg/mL) A. hydrophila: 25 µg/mL

## PRT482 (ECIDDETEEICGGHGKCYCGNCYCKAGWHGDKCE; listed as Homo sapiens)
[1]; [22]
  MIC against E. cloacae: 25 µg/mL
[2]; [22]
  MIC against E. coli BL21: 12.5 µg/mL
[3]; [22]
  MIC against C. diversus: 25 µg/mL
[4]
  MIC: 50 µg/mL
[5]; [22]
  MIC against P. aeruginosa: 50 µg/mL
[6]; [22]
  MIC against S. marcescens: 25 µg/mL
[7]; [22]
  MIC against P. mirabilis: 25 µg/mL
[8]; [22]
  MIC against M. catarrhalis: 12.5 µg/mL
[9]; [22]
  MIC against P. vulgaris: 50 µg/mL
[10]; [22]
  MIC against K. pneumonia: 12.5 µg/mL
[11]; [22]
  MIC against A. hydrophila: 50 µg/mL

## PRT1401 (VCHPRCIEHGTCKDGKCECREGWNGEHCT; listed as Homo sapiens)
[1]; [12]
  MIC against E. cloacae: 12.5 µg/mL
[2]; [13]
  MIC against E. coli BL21: 25 µg/mL
[3]; [14]
  MIC against C. diversus: 12.5 µg/mL
[4]
  MIC: 12.5 µg/mL
[5]; [15]
  MIC against P. aeruginosa: 12.5 µg/mL
[6]; [16]
  MIC against S. marcescens: 12.5 µg/mL
[7]; [17]
  MIC against P. mirabilis: 12.5 µg/mL
[8]; [18]
  MIC against M. catarrhalis: 25 µg/mL
[9]; [19]
  MIC against P. vulgaris: 25 µg/mL
[10]; [20]
  MIC against K. pneumonia: 25 µg/mL
[11]; [21]
  MIC against A. hydrophila: 25 µg/mL

## PRT926 (EINECQSNPCVNNGQCVDKVNRFQCLCPPGFTGPVCQ; listed as Homo sapiens)
[1]; E. cloacae, 10 h cultivation at 37° C.
  MIC: 25 µg/mL
[2]; E. coli BL21, 10 h cultivation at 37° C.
  MIC: 50 µg/mL
[3]; C. diversus, 10 h cultivation at 37° C.
  MIC: 12.5 µg/mL
[4]
  MIC: 25 µg/mL
[5]; P. aeruginosa, 10 h cultivation at 37° C.
  MIC: 25 µg/mL
[6]; S. marcescens, 10 h cultivation at 37° C.
  MIC: 12.5 µg/mL
[7]; P. mirabilis, 10 h cultivation at 37° C.
  MIC: 50 µg/mL
[8]; M. catarrhalis, 10 h cultivation at 37° C.
  MIC: 25 µg/mL
[9]; P. vulgaris, 10 h cultivation at 37° C.
  MIC: 25 µg/mL
[10]; K. pneumonia, 10 h cultivation at 37° C.
  MIC: 12.5 µg/mL
[11]; A. hydrophila, 10 h cultivation at 37° C.
  MIC: 50 µg/mL

## PRT1089 (ANPCCSHPCQNRGVCMSVGFDQYKCDCTRTGFYGENCS; listed as Homo sapiens)
[1]; [23]
  MIC E. cloacae: 12.5 µg/mL
[2]; [23]
  MIC E. coli BL21: 25 µg/mL
[3]; [23]
  MIC C. diversus: 25 µg/mL
[4]
  MIC: 50 µg/mL
[5]; [23]
  MIC P. aeruginosa: 50 µg/mL
[6]; [23]
  MIC S. marcescens: 25 µg/mL
[7]; [23]
  MIC P. mirabilis: 25 µg/mL
[8]; [23]
  MIC M. catarrhalis: 12.5 µg/mL
[9]; [23]
  MIC P. vulgaris: 50 µg/mL
[10]; [23]
  MIC K. pneumonia: 25 µg/mL
[11]; [23]
  MIC A. hydrophila: 50 µg/mL
